Active and inactive are the calls of the source. No cut-off for these calls is given here.
Key:
Assay type in all cases: functional
Rattus norvegicus [1] = assay: Antipyretic activity in Wistar Rattus norvegicus (rat) assessed as decrease in Brewer's yeast solution-induced hyperthermia at 100 mg/kg, po measured after 2 hr (reference value: 37 +/- 1.7 degC)
Rattus norvegicus [2] = assay: Effect on glutathione reductase level in Wistar Rattus norvegicus (rat) liver measured NADPH oxidized per min per mg of protein at 50 mg/kg, po after 10 days (reference value: 4.19 +/ 0.42 nmol)
Rattus norvegicus [3] = assay: Antipyretic activity in Wistar Rattus norvegicus (rat) assessed as decrease in Brewer's yeast solution-induced hyperthermia at 150 mg/kg, po measured after 2 hr (reference value: 37 +/- 1.7 degC)
Rattus norvegicus [4] = assay: Antipyretic activity in Wistar Rattus norvegicus (rat) assessed as decrease in Brewer's yeast solution-induced hyperthermia at 50 mg/kg, po measured after 3 hr (reference value: 36.8 +/- 1.9 degC)
Rattus norvegicus [5] = assay: Anti-inflammatory activity in Wistar Rattus norvegicus (rat) assessed as inhibition of carrageenan-induced paw edema at 150 mg/kg, po administered 30 min prior to carrageenan challenge measured at 120 min relative to untreated control
Rattus norvegicus [6] = assay: Effect on TBARS level in Wistar Rattus norvegicus (rat) serum at 100 mg/kg, po qd after 10 days (reference value: 0.82 +/- 0.073 nmol/ml)
Rattus norvegicus [7] = assay: Effect on SGPT level in Wistar Rattus norvegicus (rat) at 50 mg/kg, po qd after 10 days (reference value: 38.77 +/- 4.25 U/I)
Rattus norvegicus [8] = assay: Effect on SGOT level in Wistar Rattus norvegicus (rat) at 50 mg/kg, po qd after 10 days (reference value: 145.50 +/- 13.86 U/I)
Rattus norvegicus [9] = assay: Anti-inflammatory activity in Wistar Rattus norvegicus (rat) assessed as inhibition of carrageenan-induced paw edema at 100 mg/kg, po administered 30 min prior to carrageenan challenge measured at 120 min relative to untreated control
Rattus norvegicus [10] = assay: Effect on gamma-glutamyl transferase level in Wistar Rattus norvegicus (rat) serum at 150 mg/kg, po qd after 10 days (reference value: 0.57 +/- 0.04 U/I)
Rattus norvegicus [11] = assay: Effect on gamma-glutamyl transferase level in Wistar Rattus norvegicus (rat) serum at 50 mg/kg, po qd after 10 days (reference value: 0.57 +/- 0.04 U/I)
Rattus norvegicus [12] = assay: Anti-inflammatory activity in Wistar Rattus norvegicus (rat) assessed as inhibition of carrageenan-induced paw edema at 50 mg/kg, po administered 30 min prior to carrageenan challenge measured at 90 min relative to untreated control
Rattus norvegicus [13] = assay: Anti-inflammatory activity in Wistar Rattus norvegicus (rat) assessed as inhibition of carrageenan-induced paw edema at 100 mg/kg, po administered 30 min prior to carrageenan challenge measured at 60 min relative to untreated control
[14] = test system: Radical scavenging activity; assay: Antioxidant activity assessed as DPPH free radical scavenging activity at 6 mg/ml after 5 to 60 min by spectrophotometric analysis
Rattus norvegicus [15] = assay: Effect on TBARS level in Wistar Rattus norvegicus (rat) serum at 150 mg/kg, po qd after 10 days (reference value: 0.82 +/- 0.073 nmol/ml)
Rattus norvegicus [16] = assay: Effect on LDH level in Wistar Rattus norvegicus (rat) serum at 50 mg/kg, po qd after 10 days (reference value: 249.89 +/- 13.26 U/I)
Rattus norvegicus [17] = assay: Antipyretic activity in Wistar Rattus norvegicus (rat) assessed as decrease in Brewer's yeast solution-induced hyperthermia at 100 mg/kg, po measured after 3 hr (reference value: 36.8 +/- 1.9 degC)
Rattus norvegicus [18] = assay: Antipyretic activity in Wistar Rattus norvegicus (rat) assessed as decrease in Brewer's yeast solution-induced hyperthermia at 100 mg/kg, po measured after 1 hr (reference value: 37 +/- 3.55 degC)
Rattus norvegicus [19] = assay: Effect on ALP level in Wistar Rattus norvegicus (rat) serum at 150 mg/kg, po qd after 10 days (reference value: 39.5 +/- 3.86 U/I)
Rattus norvegicus [20] = assay: Anti-inflammatory activity in Wistar Rattus norvegicus (rat) assessed as inhibition of carrageenan-induced paw edema at 50 mg/kg, po administered 30 min prior to carrageenan challenge measured at 30 min post carrageenan challenge relative to untreated control
Rattus norvegicus [21] = assay: Anti-inflammatory activity in Wistar Rattus norvegicus (rat) assessed as inhibition of carrageenan-induced paw edema at 100 mg/kg, po administered 30 min prior to carrageenan challenge measured at 30 min post carrageenan challenge relative to untreated control
Rattus norvegicus [22] = assay: Effect on LDH level in Wistar Rattus norvegicus (rat) serum at 150 mg/kg, po qd after 10 days (reference value: 249.89 +/- 13.26 U/I)
Rattus norvegicus [23] = assay: Antipyretic activity in Wistar Rattus norvegicus (rat) assessed as decrease in Brewer's yeast solution-induced hyperthermia at 150 mg/kg, po measured after 3 hr (reference value: 36.8 +/- 1.9 degC)
Rattus norvegicus [24] = assay: Anti-inflammatory activity in Wistar Rattus norvegicus (rat) assessed as inhibition of carrageenan-induced paw edema at 50 mg/kg, po administered 30 min prior to carrageenan challenge measured at 60 min relative to untreated control
Rattus norvegicus [25] = assay: Effect on GST level in Wistar Rattus norvegicus (rat) liver measured CDNB conjugated per min per mg of protein at 100 mg/kg, po after 10 days (reference value: 0.86 +/- 0.08 mmol)
[26] = Antioxidant activity assessed as reduction of Fe3+ to Fe2+ at 20 to 120 ug/ml after 30 min by spectrophotometric analysis
Rattus norvegicus [27] = assay: Anti-inflammatory activity in Wistar Rattus norvegicus (rat) assessed as inhibition of carrageenan-induced paw edema at 100 mg/kg, po administered 30 min prior to carrageenan challenge measured at 90 min relative to untreated control
Rattus norvegicus [28] = assay: Anti-inflammatory activity in Wistar Rattus norvegicus (rat) assessed as inhibition of carrageenan-induced paw edema at 50 mg/kg, po administered 30 min prior to carrageenan challenge measured at 180 min relative to untreated control
Rattus norvegicus [29] = assay: Effect on TBARS level in Wistar Rattus norvegicus (rat) serum at 50 mg/kg, po qd after 10 days (reference value: 0.82 +/- 0.073 nmol/ml)
Rattus norvegicus [30] = assay: Effect on glutathione peroxidase level in Wistar Rattus norvegicus (rat) liver measured GSH oxidized per min per mg of protein at 150 mg/kg, po after 10 days (reference value: 47.47 +/- 3.86 mmol)
Rattus norvegicus [31] = assay: Effect on glutathione reductase level in Wistar Rattus norvegicus (rat) liver measured NADPH oxidized per min per mg of protein at 150 mg/kg, po after 10 days (reference value: 4.19 +/ 0.42 nmol)
Rattus norvegicus [32] = assay: Effect on glutathione peroxidase level in Wistar Rattus norvegicus (rat) liver measured GSH oxidized per min per mg of protein at 100 mg/kg, po after 10 days (reference value: 47.47 +/- 3.86 mmol)

Row | SMILES | T (Rattus norvegicus [1]) [°C] | Activity (Rattus norvegicus [2]) [nmol] | T (Rattus norvegicus [3]) [°C] | T (Rattus norvegicus [4]) [°C] | inhibition in vivo at 150 mg/kg (Rattus norvegicus [5]) [%] | Activity (Rattus norvegicus [6]) [nmol/mL] | Activity (Rattus norvegicus [7]) [U/L] | Activity (Rattus norvegicus [8]) [U/L] | inhibition in vivo at 100 mg/kg (Rattus norvegicus [9]) [%] | Activity (Rattus norvegicus [10]) [U/L] | Activity (Rattus norvegicus [11]) [U/L] | inhibition in vivo at 50 mg/kg (Rattus norvegicus [12]) [%] | inhibition in vivo at 100 mg/kg (Rattus norvegicus [13]) [%] | Activity [14] | Activity (Rattus norvegicus [15]) [nmol/mL] | Activity (Rattus norvegicus [16]) [U/L] | T (Rattus norvegicus [17]) [°C] | T (Rattus norvegicus [18]) [°C] | Activity (Rattus norvegicus [19]) [U/L] | inhibition in vivo at 50 mg/kg (Rattus norvegicus [20]) [%] | other results
1 | O=c1c2ccccc2nc2n1NC(c1ccc(O)c(O)c1)C2 (centres undefined) | 36 | 4.33 | 37 | 36.1 | 58.2 | 0.83 | 41.97 | 139.53 | 54.7 | 0.5 | 0.55 | 39.5 | 38 | Active | 0.8 | 246.29 | 36.8 | 37.8 | 37.58 | 1.28 | inhibition in vivo at 100 mg/kg (Rattus norvegicus [21]): 4.58%; Activity (Rattus norvegicus [22]): 238.21 U/L; T (Rattus norvegicus [23]): 36.6 °C; inhibition in vivo at 50 mg/kg (Rattus norvegicus [24]): 28.1%; Activity (Rattus norvegicus [25]): 1.15 mmol; Activity [26]: Active; inhibition in vivo at 100 mg/kg (Rattus norvegicus [27]): 45.9%; inhibition in vivo at 50 mg/kg (Rattus norvegicus [28]): 47%; Activity (Rattus norvegicus [29]): 0.82 nmol/mL; Activity (Rattus norvegicus [30]): 53.45 mmol; Activity (Rattus norvegicus [31]): 5.14 nmol; Activity (Rattus norvegicus [32]): 51.38 mmol
2 | COC(=O)c1ccccc1NC(=O)/C=C/c1ccc(O)c(O)c1 | 36.7 | 4.85 | 36.5 | 36.8 | 76 | 0.75 | 42.47 | 135.62 | 64.3 | 0.49 | 0.53 | 53.1 | 45.4 | Active | 0.7 | 240.38 | 36.8 | 37.2 | 31.17 | 24.7 | inhibition in vivo at 100 mg/kg (Rattus norvegicus [21]): 26.8%; Activity (Rattus norvegicus [22]): 232.48 U/L; T (Rattus norvegicus [23]): 36.5 °C; inhibition in vivo at 50 mg/kg (Rattus norvegicus [24]): 41.6%; Activity (Rattus norvegicus [25]): 1.54 mmol; Activity [26]: Active; inhibition in vivo at 100 mg/kg (Rattus norvegicus [27]): 49.3%; inhibition in vivo at 50 mg/kg (Rattus norvegicus [28]): 65.3%; Activity (Rattus norvegicus [29]): 0.77 nmol/mL; Activity (Rattus norvegicus [30]): 57.89 mmol; Activity (Rattus norvegicus [31]): 6.36 nmol; Activity (Rattus norvegicus [32]): 53.74 mmol

Source: ChEMBL document CHEMBL3046756, “Synthesis, anti-inflammatory, and structure antioxidant activity relationship of novel 4-quinazoline” (Med Chem Res, 2013)
